Measured values published in patent publication US11970473B2, “Nootkatone derivatives and methods of using the same” (Arkansas State University—Jonesboro, priority 2021, dated 2024).
≈ marks a conversion by molar mass, not a printed value.

What was measured:
[1] = system: B. subtilis ATCC 6623 (Bs); assay: Minimal inhibitory concentration (MIC) assay; type: cell-based; conditions: Bacillus subtilis, ATCC6623; B. subtilis ATCC 6623; read-out: Antimicrobial activity (MIC) Bs
Summary of the method: (§1)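 CLSI broth microdilution; top concentration 50 μg/ml, 2-fold serial dilution; n = 3 replicates.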

[2] = system: Enterococcus faecalis ATCC 29212 (Es12); assay: Minimal inhibitory concentration (MIC) assay; type: cell-based; conditions: ATCC29212; Enterococcus faecalis ATCC 29212; read-out: Antimicrobial activity (MIC) Es12
Summary of the method: as §1

[3] = system: Enterococcus faecium ATCC 700221 (Em21); assay: Minimal inhibitory concentration (MIC) assay; type: cell-based
Summary of the method: as §1

[4] = system: S. aureus ATCC 25923 (Sa23); assay: Minimal inhibitory concentration (MIC) assay; type: cell-based; conditions: Staphylococcus aureus, ATCC25923; S. aureus ATCC 25923, antibiotic susceptible strain; read-out: Antimicrobial activity (MIC) Sa23
Summary of the method: as §1

[5] = system: S. aureus ATCC 33591 (Sa91); assay: Minimal inhibitory concentration (MIC) assay; type: cell-based; conditions: Staphylococcus aureus, ATCC33591; S. aureus ATCC 33591, antibiotic-resistant strain; read-out: Antimicrobial activity (MIC) Sa91
Summary of the method: as §1

[6] = system: S. aureus ATCC 33592 (Sa92); assay: Minimal inhibitory concentration (MIC) assay; type: cell-based; conditions: Staphylococcus aureus, ATCC33592; S. aureus ATCC 33592, antibiotic-resistant strain; read-out: Antimicrobial activity (MIC) Sa92
Summary of the method: as §1

[7] = system: S. aureus ATCC 700699 (Sa99); assay: Minimal inhibitory concentration (MIC) assay; type: cell-based; conditions: Staphylococcus aureus, ATCC700699; S. aureus ATCC 700699, antibiotic-resistant strain; read-out: Antimicrobial activity (MIC) Sa99
Summary of the method: as §1

[8] = system: S. aureus BAA-2312 (Sa12); assay: Minimal inhibitory concentration (MIC) assay; type: cell-based; conditions: Staphylococcus aureus, BAA2312; S. aureus BAA-2312, antibiotic-resistant strain; read-out: Antimicrobial activity (MIC) Sa12
Summary of the method: as §1

[9] = system: S. epidermidis 700296 (Se); assay: Minimal inhibitory concentration (MIC) assay; type: cell-based; conditions: Staphylococcus epidermidis, S. epidermidis 700296; read-out: Antimicrobial activity (MIC) Se
Summary of the method: as §1

S. aureus strains = assay: MIC, summary over S. aureus strains; type: cell-based; conditions: Staphylococcus aureus; lowest MIC over S. aureus strains; read-out: minimum inhibitory concentration (MIC) value as low as
Experimental: Minimal inhibitory concentration (MIC) assay The standard microdilution method recommended by the Clinical and Laboratory Standards Institute (CLSI) was used to determine the MIC of the antibiotics. The starting concentration of compounds was 50 μg/ml and 2-fold dilution was done down the 96 honeycomb well plate column. The MIC assay was conducted in triplicates.

NCI-60 cancer cell lines = assay: NCI-60 cancer screen (whole panel); type: cell-based, human; conditions: 10 μM
CCRF-CEM = assay: NCI-60 cancer screen; type: cell-based, human; conditions: Leukemia, 10 μM
HL-60(TB) = assay: NCI-60 cancer screen; type: cell-based, human; conditions: Leukemia, 10 μM
EKVX = assay: NCI-60 cancer screen; type: cell-based, human; conditions: Non-Small Cell Lung Cancer, 10 μM
HOP-92 = assay: NCI-60 cancer screen; type: cell-based, human; conditions: HOP-92, Non-Small Cell Lung Cancer; 10 μM
NCI-H322M = assay: NCI-60 cancer screen; type: cell-based, human; conditions: Non-Small Cell Lung Cancer, 10 μM
KM12 = assay: NCI-60 cancer screen; type: cell-based, human; conditions: KM12, Colon Cancer; 10 μM
SW-620 = assay: NCI-60 cancer screen; type: cell-based, human; conditions: SW-620, Colon Cancer; 10 μM
SF-268 = assay: NCI-60 cancer screen; type: cell-based, human; conditions: SF-268, CNS Cancer; 10 μM
SF-295 = assay: NCI-60 cancer screen; type: cell-based, human; conditions: SF-295, CNS Cancer; 10 μM
SNB-75 = assay: NCI-60 cancer screen; type: cell-based, human; conditions: SNB-75, CNS Cancer; 10 μM
MALME-3M = assay: NCI-60 cancer screen; type: cell-based, human; conditions: Melanoma, 10 μM
SK-MEL-28 = assay: NCI-60 cancer screen; type: cell-based, human; conditions: SK-MEL-28, Melanoma; 10 μM
786-0 = assay: NCI-60 cancer screen; type: cell-based, human; conditions: 786-0, Renal Cancer; 10 μM
ACHN = assay: NCI-60 cancer screen; type: cell-based, human; conditions: Renal Cancer, 10 μM
CAKI-1 = assay: NCI-60 cancer screen; type: cell-based, human; conditions: CAKI-1, Renal Cancer; 10 μM
TK-10 = assay: NCI-60 cancer screen; type: cell-based, human; conditions: TK-10, Renal Cancer; 10 μM
MCF7 = assay: NCI-60 cancer screen; type: cell-based, human; conditions: MCF7, Breast Cancer; 10 μM

Compound: C=C(C)[C@@H]1CC=C2c3sc(-c4ccc(O)cc4)nc3C[C@@H](C)[C@]2(C)C1 [Compound 15, 4-[(5R,5aS,7R)-7-isopropenyl-5,5a-dimethyl-5,6,7,8-tetrahydro-4H-benzo[g][1,3]benzothiazol-2-yl]phenol]
- MIC [1]: 6.25 µg/mL (≈ 17.8 µM)
- MIC [2]: 12.5 µg/mL (≈ 35.6 µM)
- Antimicrobial activity (MIC) Em21 ([3]; Enterococcus faecium ATCC 700221): 3.12 µg/mL
- MIC ([3]; Enterococcus faecium, ATCC700221, Enterococcus faecium ATCC 700221, read-out: Antimicrobial activity (MIC) Em21): 3.12 µg/mL (≈ 8.89 µM)
- MIC [4]: > 100 µg/mL
- MIC [5]: 6.2 µg/mL (≈ 17.6 µM)
- MIC [6]: 6.25 µg/mL (≈ 17.8 µM)
- MIC [7]: 12.5 µg/mL (≈ 35.6 µM)
- MIC [8]: 12.5 µg/mL (≈ 35.6 µM)
- MIC [9]: 6.25 µg/mL (≈ 17.8 µM)
- MIC (S. aureus strains): 6.25 µg/mL (≈ 17.8 µM)
- Growth Percent, Delta (NCI-60 cancer cell lines; delta over panel): 16.54%
- Growth Percent, Mean (NCI-60 cancer cell lines; mean over panel): 100.94%
- Growth Percent, Range (NCI-60 cancer cell lines; range over panel): 34.01%
- Growth Percent (CCRF-CEM): 99.49%
- Growth Percent (HL-60(TB)): 100.82%
- Growth Percent (EKVX): 101.37%
- Growth Percent (HOP-92): 96.54%
- Growth Percent (NCI-H322M): 102.27%
- Growth Percent (KM12): 103.49%
- Growth Percent (SW-620): 103.38%
- Growth Percent (SF-268): 100.98%
- Growth Percent (SF-295): 92.61%
- Growth Percent (SNB-75): 87.74%
- Growth Percent (MALME-3M): 99.38%
- Growth Percent (SK-MEL-28): 106.43%
- Growth Percent (786-0): 101.31%
- Growth Percent (ACHN): 100.09%
- Growth Percent (CAKI-1): 99.88%
- Growth Percent (TK-10): 118.28%
- Growth Percent (MCF7): 89.98%
